{"source": "patent US20070286896A1", "about": "“Therapeutic or Diagnostic Drug for Inflammatory Disease Comprising Targeting Liposome” (NATIONAL INSTITUTE OF ADVANCED INDUSTRIAL SCIENCE AND …, priority 2003, published 2007)", "type_in_all_cases": "in vivo, DBA/1J mice", "key": {"[1]": {"test_system": "Collagen type II induced arthritis (CIA) mice", "test": "Test for determining proper amount of prednisolone phosphate for RA mice", "conditions": "Day 28 to Day 46"}, "[2]": {"test_system": "Collagen type II induced arthritis (CIA) mice", "test": "Medical treatment of RA mice by intravenous administration of DDS liposomes", "protocol": "(§1) A water solution of the collagen and the CFA were mixed at a volume ratio of 2:1 to prepare an emulsion containing 200 μg of the collagen per 100 μL thereof. This emulsion was subcutaneously injected into the bottom of the tails of the mice (Day 0). After 21 days from the administration (Day 21), a water solution of the collagen and the IFA were mixed at a volume ratio of 2:1 to prepare an emulsion containing 200 μg of the collagen per 100 μL thereof, and this emulsion was subcutaneously injected again into the bottom of the tails of the mice.\n(§2) After the injection, the limbs of the mice were observed on a three times/week basis, and inflammation was quantitatively determined by giving it a point according to the following criteria: for each limb, normal: 0 point, mild inflammation or redness: 1 point, severe redness, dilatation, or reduced use: 2 points, and deformed palm, plantar region, or joint region: 3 points (0 point lowest, 12 points highest, per mouse). Inflammatory activity (hereinafter, referred to as IA) was determined by applying the obtained point to the following formula: Inflammatory activity (%)=points of all limbs/12×100.\nMice with arthritis received medical treatment by injecting a therapeutic drug to the tail veins thereof. The intravenous injection was performed on a twice/week basis for a period from Day 28 to Day 46. […]"}, "[3]": {"test_system": "Collagen type II induced arthritis (CIA) mice", "test": "Medical treatment of RA mice by oral administration of DDS liposomes", "conditions": "oral three times/week Day 28 to Day 39; free Pred 100 μg, L-Pred 10 μg per administration", "protocol": "as §1, §2\nMice with arthritis received medical treatment by orally administering a therapeutic drug to the mice. The oral administration was performed on a three times/week basis for a period from Day 28 to Day 39. […]"}}}
{"smiles": "C[C@]12C=CC(=O)C=C1CC[C@@H]1[C@@H]2[C@@H](O)C[C@@]2(C)[C@H]1CC[C@]2(O)C(=O)COP(=O)(O)O", "note": "[prednisolone phosphate]", "values": [{"measurement": "IA compared with control group", "setting": "[1]; intravenous 250 μg/injection (500 μg/week)", "value": "No significant difference"}, {"measurement": "rise in IA / progression of the inflammation", "setting": "[1]; intravenous 500 μg/injection (1000 μg/week)", "value": "a rise in IA was not observed, and the progression of the inflammation was suppressed"}, {"measurement": "Inflammatory activity (IA)", "setting": "[2]; intravenous 100 μg/injection (200 μg/week) prednisolone phosphate, Day 37", "value": "approximately 50%"}, {"measurement": "IA compared with other groups / progression of inflammation", "setting": "[2]; intravenous twice/week Day 28 to Day 46, free Pred 100 μg/injection, liposomes 10 μg/injection", "value": "no evident difference was observed between the IA of the free Pred group and the IA of the Control group"}, {"measurement": "difference in IA among the control, free Pred (until Day 32) and L-Pred groups", "setting": "[3]", "value": "no significant difference"}]}
